Several values for one entry are separate records, joined by “and”; a condition that tells them apart may be missing. Identical values can stand only once. Counter-ions that a name gives are not always drawn. Numbered stars: 1 amine (or outer) side, 2 acyl side, 3 side chain; on linkers, the order of the positions; unused ones are H or OH. Bridge positions count the residues as written; N and C are the ends. Square brackets hold non-standard residues; d marks the D form. Peptide text beside a SMILES is read from it. ξ: configuration not given here. X1 = CC[C@H](CCC[C@@H](O)[C@@H](C)C(=O)O[C@H](C)[C@@H](C)C/C=C(C)\C(=C/C(=O)[*:1])OC)O[*:2]; NMeξIle = CC[C@H](C)C(NC)C(=O)O; NMeV = CN[C@H](C(=O)O)C(C)C; NMeS = CN[C@@H](CO)C(=O)O
Target: T1, Protein skinhead-1 (Caenorhabditis elegans, UniProt P34707)
T1 sequence (P34707 whole entry): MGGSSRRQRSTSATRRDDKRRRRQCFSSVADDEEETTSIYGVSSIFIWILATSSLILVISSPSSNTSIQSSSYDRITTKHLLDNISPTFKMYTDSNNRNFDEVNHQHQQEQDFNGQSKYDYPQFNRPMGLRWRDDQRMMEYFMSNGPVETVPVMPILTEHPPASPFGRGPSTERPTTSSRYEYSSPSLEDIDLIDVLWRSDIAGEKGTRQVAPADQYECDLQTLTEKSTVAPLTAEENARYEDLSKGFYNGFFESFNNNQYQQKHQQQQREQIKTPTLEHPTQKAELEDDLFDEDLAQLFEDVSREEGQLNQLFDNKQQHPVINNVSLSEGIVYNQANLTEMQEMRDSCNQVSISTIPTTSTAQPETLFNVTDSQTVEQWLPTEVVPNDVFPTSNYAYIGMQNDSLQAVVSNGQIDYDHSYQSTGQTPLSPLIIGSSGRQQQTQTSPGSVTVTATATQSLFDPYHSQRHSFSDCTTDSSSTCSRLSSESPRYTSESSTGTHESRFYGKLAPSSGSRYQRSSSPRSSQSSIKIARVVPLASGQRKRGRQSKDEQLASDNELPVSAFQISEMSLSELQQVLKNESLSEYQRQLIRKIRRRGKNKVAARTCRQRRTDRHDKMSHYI

[1] = inactive by the depositor's call

SMILES | IC50 | IC50 [1]
COC(=O)c1cc(=O)nc2sccn12 | 21.9 µM | –
CN(C)c1ccc(N=CCC(=O)c2ccco2)cc1 | 70.5 µM | –
O=C(CC=Nc1cccc(F)c1)c1cccs1 | 46.7 µM | –
O=C1/C(=C/c2ccccn2)CCc2ccccc21 | 78.5 µM | –
Nc1ccc(/C=C2\C=Cc3ccccc32)cc1 | 45 µM | –
Cc1ccc2nc(-c3cccnc3)c(NC3CCCCC3)n2c1 | 23.5 µM | –
Cc1ccc(N=CC(C(=O)c2ccco2)C(=O)C(F)(F)F)cc1Cl (stereo unspecified) [2-{[(3-chloro-4-methylphenyl)amino]methylene}-4,4,4-trifluoro-1-(2-furyl)-1,3-butanedione] | 14.3 µM | –
O=C(c1ccco1)C(C=Nc1ccc(Br)cc1)C(=O)C(F)(F)F (stereo unspecified) [2-{[(4-bromophenyl)amino]methylene}-4,4,4-trifluoro-1-(2-furyl)-1,3-butanedione] | 21 µM | –
O=C(CC=Nc1ccc(F)c(F)c1)c1cccs1 [3-[(3,4-difluorophenyl)amino]-1-(2-thienyl)-2-propen-1-one] | 11.4 µM | –
Cc1ccc(N=CCC(=O)c2cccs2)cc1 [3-[(4-methylphenyl)amino]-1-(2-thienyl)-2-propen-1-one] | 60.3 µM | –
O=C1C=CC(=O)c2c(O)c(N3CCN(CCOCCO)CC3)c(Br)c(O)c21 [6-bromo-5,8-dihydroxy-7-[4-[2-(2-hydroxyethoxy)ethyl]piperazin-1-yl]naphthalene-1,4-dione;hydrochloride] | 75.5 µM | –
COC(=O)[C@]12OC[C@]34[C@H]([C@@H](O)[C@@H]1O)[C@@]1(C)CC(=O)C(=O)C(C)[C@@H]1C[C@H]3OC(=O)[C@H](OC(=O)/C=C(\C)C(C)C)[C@@H]24 (stereo partly drawn) [10,15,16-trihydroxy-9,13-dimethyl-17-methyloxycarbonyl-4,11-dioxo-(1R,2S,3R,6R,8R,13S,14R,15R,16S,17R)-5,18-dioxapentacyclo[12.5.0.01,6.02,17.08,13]nonadec-9-en-3-yl 3,4-dimethyl-(E)-2-pentenoate] | 75.3 µM | –
O=C1N[C@@H]2C(=C[C@H](O)[C@@H](O)[C@H]2O)c2cc3c(c(O)c21)OCO3 [(2S,3R,4S,4aR)-2,3,4,7-Tetrahydroxy-3,4,4a,5-tetrahydro-2H-[1,3]dioxolo[4,5-j]phenanthridin-6-one] | 51.4 µM | –
Cc1cccc(C=CC(=O)c2ccc(N=C3NCCCS3)cc2)c1 [(E)-1-[4-(5,6-dihydro-4H-1,3-thiazin-2-ylamino)phenyl]-3-(3-methylphenyl)prop-2-en-1-one] | – | 79.9 µM
O=C(CC=Nc1ccc(F)cc1F)c1ccco1 [(E)-3-(2,4-difluoroanilino)-1-(2-furanyl)-2-propen-1-one] | 22.7 µM | –
O=C(CC=Nc1ccc(F)c(Cl)c1)c1ccco1 [(E)-3-(3-chloro-4-fluoroanilino)-1-(furan-2-yl)prop-2-en-1-one] | 16.7 µM | –

SMILES | IC50 | IC50 [1]
Cc1ccc(Cl)c(N=CCC(=O)c2ccccc2)c1 [(E)-3-[(2-chloranyl-5-methyl-phenyl)amino]-1-phenyl-prop-2-en-1-one] | 68.8 µM | –
O=C(CC=Nc1ccccc1F)c1cccs1 [(E)-3-[(2-fluorophenyl)amino]-1-thiophen-2-yl-prop-2-en-1-one] | 27.9 µM | –
O=C(CC=Nc1ccc(F)cc1F)c1cccs1 [(E)-3-[[2,4-bis(fluoranyl)phenyl]amino]-1-thiophen-2-yl-prop-2-en-1-one] | 5.04 µM | –
O=C(CC=Nc1ccccn1)c1ccccc1 [(Z)-1-phenyl-3-(pyridin-2-ylamino)prop-2-en-1-one] | 53.7 µM | –
O=C(C=Cc1ccc(Br)cc1)c1ccc(N=C2NCCCS2)cc1 [MLS000391412] | 18.3 µM | –
Cc1cc(C)c2ccc3c(C)c(C)[nH]c3c2n1 [MLS000729064] | 41.1 µM | –
CC[C@@H]1CCC[C@@H](O)[C@@H](C)C(=O)O[C@H](C)[C@@H](C)C/C=C(C)\C(OC)=C/C(=O)N(C)C([C@@H](C)CC)C(=O)N(C)[C@@H](C(C)C)C(=O)N(C)[C@@H](COC)C(=O)N2CCC[C@H]2C(=O)N(C)[C@@H](C(C)C)C(=O)N2CCC[C@H]2C(=O)O1 (stereo partly specified) [MLS003235796] ([NMeξIle][NMeV][NMeS](Me)P[NMeV]P; linker N-C via X1) | 82.4 µM | –
O=C(/N=C1\[N-]c2ccc(Br)c[n+]2Cc2ccccc21)c1ccc([N+](=O)[O-])cc1[N+](=O)[O-] [N-(2-bromanyl-11H-pyrido[1,2-b][2,4]benzodiazepin-6-ylidene)-2,4-dinitro-benzamide] | 2.78 µM | –
CCOC(=O)c1c(C)oc2c(F)c(F)c(F)c(F)c2c1=O [SMR000041624] | 45.5 µM | –
C=c1[nH]n(-c2ccccc2)c(=O)c1=CC=C1N(C)c2ccccc2C1(C)C [SMR000175131] | 87.3 µM and 14.4 µM | –
CC1CCCCN1Cc1c(O)ccc2c(=O)c(-c3nc4ccccc4s3)c(N)oc12 (stereo unspecified) [SMR000218869] | 6.82 µM | –
O=C(CC=Nc1ccc(Br)cc1)c1cccnc1 [SMR000225438] | 68.9 µM | –
O=C(CC=Nc1ccc(Br)cc1F)c1ccco1 [SMR000293180] | 2.19 µM | –
O=C1C2=CCC=CC2Oc2ccc(Br)cc21 (stereo unspecified) [SMR000327218] | > 100 µM | –
Cn1ccs/c1=N/C(=O)c1ccc(OC(F)(F)F)cc1 [SMR000589314] | – | 61.9 µM

— BindingDB's records for doi:10.7270/Q2DV1HH8 (Burnham Center For Chemical Genomics, 2012)
